Test results from US9464048B2, “5-oxo-ETE receptor antagonist compounds” (THE ROYAL INSTITUTION FOR THE ADVANCEMENT OF …, priority 2009, dated 2016).
pIC50: −log10 of the molar value.

How the values were obtained:
Format in all cases: cell-based
[1] = system: calcium mobilization in response to LTB4; experiment: LTB4-induced calcium mobilization in human neutrophils; conditions: compound 1 μM, LTB4 10 nM, FIG. 2
Protocol: Human granulocytes 95% neutrophils) are prepared from whole blood using Dextran 500 to remove red blood cells, followed by centrifugation over Ficoll-Paque to remove mononuclear cells and hypotonic lysis of any remaining red blood cells. After centrifugation the granulocytes are suspended in Ca^++/Mg^++-free phosphate-buffered saline (PBS). Granulocytes (10^7 cells/nil) are incubated with the acetoxymethyl ester of indo-1 ([…]) for 30 min, followed by washing twice with PBS^− and resuspension in the same medium to obtain a final cell concentration of 3.22×10^6 cells/ml. Five minutes prior to commencing data acquisition, Ca^++ and Mg^++ are added to give final concentrations of 1.8 and 1 mM, respectively. Calcium measurements are performed at 37° C. using a spectrofluorometer equipped with a temperature-controlled cuvette holder and a magnetic stirrer. The excitation and emission wavelengths are 331 nm and 410 nm, respectively. Following stabilization of the baseline, fluorescence is measured for 1 min, prior to the addition of either vehicle or various concentrations of a potential 5-oxo-ETE antagonist. […] Fmax is determined from fluorescence measurements after the addition of digitonin, whereas Fmin is determined after determination of autofluorescence as described in the literature (Gelfand et al, J. Biol. Chem. 261:11520 (1986)). […]

[2] = target: T1, OXE receptor (Homo sapiens, UniProt Q8TDS5); experiment: 5-oxo-ETE-induced calcium mobilization in human granulocytes; parameters: Human granulocytes 95% neutrophils) are prepared from whole blood; endogenous in cells; host or cells: human blood granulocytes (>=95% neutrophils); conditions: for IC50: human granulocytes, Table 2, read-out: IC50 (μM) Ca^++; for pIC50: readout not given, values match Ca^++, read-out: IC50
Protocol: Primary Screening for Antagonist Activity: Calcium Mobilization in Human Granulocytes
Human granulocytes 95% neutrophils) are prepared from whole blood using Dextran 500 to remove red blood cells, followed by centrifugation over Ficoll-Paque to remove mononuclear cells and hypotonic lysis of any remaining red blood cells. After centrifugation the granulocytes are suspended in Ca^++/Mg^++-free phosphate-buffered saline (PBS). Granulocytes (10^7 cells/nil) are incubated with the acetoxymethyl ester of indo-1 ([…]) for 30 min, followed by washing twice with PBS^− and resuspension in the same medium to obtain a final cell concentration of 3.22×10^6 cells/ml. Five minutes prior to commencing data acquisition, Ca^++ and Mg^++ are added to give final concentrations of 1.8 and 1 mM, respectively. Calcium measurements are performed at 37° C. using a spectrofluorometer equipped with a temperature-controlled cuvette holder and a magnetic stirrer. The excitation and emission wavelengths are 331 nm and 410 nm, respectively. Following stabilization of the baseline, fluorescence is measured for 1 min, prior to the addition of either vehicle or various concentrations of a potential 5-oxo-ETE antagonist. Two min later, 5-oxo-ETE (10 nM) is added, followed 1 min later by digitonin (final concentration 0.1%). Data acquisition is terminated after a further 0.5 min. In some cases LTB4 (10 nM) is added 2 min after 5-oxo-ETE, followed 0.5 min later by addition of digitonin. Fmax is determined from fluorescence measurements after the addition of digitonin, whereas Fmin is determined after determination of autofluorescence as described in the literature (Gelfand et al, J. Biol. Chem. 261:11520 (1986)). A dissociation constant of 250 nM for the indo-1/Ca^++ complex is used to calculate [Ca^++]i. […] Measurement of Actin Polymerization in Eosinophils

[3] = target: T1, OXE receptor; experiment: 5-oxo-ETE-induced actin polymerization (F-actin levels) in eosinophils; parameters: endogenous in cells; conditions: 5-oxo-ETE 10 nM, Table 2
Protocol: F-actin levels in eosinophils are measured using unfractionated leukocytes, prepared as described above. Leukocytes (5×10^7 cells/ml) are treated with PC5-labeled mouse anti-human CD16 (10 μl/10^6 cells; Beckman-Coulter) for 30 min on ice. PBS (2 ml/10^6 cells) is then added and the mixture centrifuged at 200×g for 10 min. The pellet is resuspended in ice cold PBS containing Ca^++ (1.8 mM) and Mg^++ (1 mM) to give a concentration of 5×10^6 cells/ml. Aliquots (90 μl) of the leukocyte suspension are first incubated at 37° C. with either vehicle (10 μl PBS containing Ca^++ and Mg^++ and 0.1% BSA) or vehicle containing a 5-oxo-ETE antagonist. After 5 min, either vehicle or vehicle containing 5-oxo-ETE (final concentration, 10 nM) is added and the incubation continued for a further 20 s. The incubations are then terminated by addition of formaldehyde (37%) to give a final concentration of 8.5%. […] F-actin levels are measured by flow cytometry in eosinophils, which are gated based on high side scatter and low staining with anti-CD16. F-actin levels in the eosinophil population are assessed on the basis of fluorescence due to staining with NBD-phallacidin.

[4] = target: T1, OXE receptor; experiment: Neutrophil migration (chemotaxis) induced by 5-oxo-ETE, microchemotaxis chambers; parameters: Human granulocytes 95% neutrophils) are prepared from whole blood; endogenous in cells; host or cells: human blood granulocytes (>=95% neutrophils); conditions: 5-oxo-ETE 100 nM; human granulocytes; Table 2
Protocol: Cell migration is measured by the modified Boyden technique using 48-well microchemotaxis chambers and Sartorius cellulose nitrate filters (8 μm pore size; 140 μm thickness) as described previously (Powell et al., J Immunol 156: 336 (1996)). Granulocytes (≧95% neutrophils) are prepared as described above. Immediately prior to use the filters are soaked in PBS containing calcium (1 mM), magnesium (1 mM), and 0.3% BSA. Either vehicle (PBS containing Ca^++, Mg^++, and 0.3% BSA) or vehicle containing 5-oxo-ETE (100 nM final concentration) is added to the bottom well in a volume of 30 μl, whereas neutrophils (150,000 cells in 55 μl PBS containing Ca^++, Mg^++ and 0.4% ovalbumin) and either vehicle or various concentrations of a 5-oxo-ETE antagonist are added to each of the top wells. The chambers are incubated for 2 h at 37° C. in 5% CO2 and humidified air. […] The filters are mounted on slides with coverslips using Permount and the numbers of cells on the bottom surfaces of the filters are counted in 5 different fields at a magnification of 400× for each incubation, each of which is performed in triplicate. In cases in which there are large numbers of cells on the bottom surfaces of the filters only quarter or half fields are counted and the results corrected accordingly.

T1 sequence (Q8TDS5 whole entry): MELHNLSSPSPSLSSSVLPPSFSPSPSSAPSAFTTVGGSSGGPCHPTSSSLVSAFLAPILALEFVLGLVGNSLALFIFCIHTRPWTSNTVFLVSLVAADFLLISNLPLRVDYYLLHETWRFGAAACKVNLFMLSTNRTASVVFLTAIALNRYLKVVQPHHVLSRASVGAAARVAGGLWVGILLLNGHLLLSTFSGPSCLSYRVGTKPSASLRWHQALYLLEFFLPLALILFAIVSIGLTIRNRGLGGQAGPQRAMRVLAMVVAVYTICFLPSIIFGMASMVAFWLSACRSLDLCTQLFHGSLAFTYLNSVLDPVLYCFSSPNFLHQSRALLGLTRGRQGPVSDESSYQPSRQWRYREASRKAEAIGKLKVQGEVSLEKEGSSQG

IC50 ([2]; 5-oxo-ETE 10 nM)	effect on calcium mobilization in response to 5-oxo-ETE ([2]; compound 1 μM, 5-oxo-ETE 10 nM, human neutrophils, FIG. 2)	IC50 [3]	IC50 [4]	pIC50 ([2]; Table 6, carboxyl side chain variation)	pIC50 ([2]; Table 7, alkyl variation)	Compound	effect on calcium mobilization in response to LTB4 [1]
0.025 µM	completely blocked	0.072 µM	0.11 µM			CCCCCCc1c(C(=O)CC(C)CC(=O)O)c2cc(Cl)ccc2n1C (racemic) [Compound 60, 5-(5-Chloro-2-hexyl-1-methyl-1H-indol-3-yl)-3-methyl-5-oxo-pentanoic acid]	not to LTB4
0.09 µM		0.46 µM	0.82 µM	7.05	7.05	CCCCCCc1cc2ccccc2n1C(=O)CC(C)CC(=O)O (stereo not shown) [Compound 2, 5-(2-Hexyl-indol-1-yl)-3-methyl-5-oxo-pentanoic acid]	
